Tests used:
[1] = target: T1, glutathione-S-transferase (GST) tagged LXRalpha LBD (ligand binding domain) (Homo sapiens, UniProt Q13133); assay: LanthaScreen TR-FRET Liver X Receptor Coactivator Assay, LXR alpha-LBD; type: biochemical; conditions: for Emax: efficacy in relation to reference dual agonist T1317, read-out: LXR alpha activity at max dose (%) (Emax); for EC50 / LXR alpha IP (nM): potency (Inflection Point) of co-activator recruitment, TR-FRET; for EC50: read-out: LXR alpha IP
T1 construct: purchased Invitrogen pv4655
T1 sequence (Q13133 209-447 limits assumed): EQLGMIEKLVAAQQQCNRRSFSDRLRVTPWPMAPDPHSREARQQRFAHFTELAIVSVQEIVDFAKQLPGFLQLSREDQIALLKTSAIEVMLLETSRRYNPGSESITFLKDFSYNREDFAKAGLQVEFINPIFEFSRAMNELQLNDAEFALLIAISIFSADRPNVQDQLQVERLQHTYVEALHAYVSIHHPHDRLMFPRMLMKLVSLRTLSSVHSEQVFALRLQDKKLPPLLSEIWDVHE
Method: (§1) While running the LanthaScreen™ TR-FRET Liver X Receptor Coactivator Assay, LXR alpha-LBD or LXR beta-LBD was added to ligand test compounds followed by addition of a mixture of a fluorescein-labelled coactivator peptide and terbium-conjugated anti-GST antibody. After an incubation period at room temperature, TR-FRET (time-resolved fluorescence resonance energy transfer) was measured using a filter-based instrument capable of TR-FRET, e.g. PerkinElmer Envision.

[2] = target: T2, glutathione-S-transferase (GST) tagged LXRbeta LBD (ligand binding domain) (Homo sapiens, UniProt P55055); assay: LanthaScreen TR-FRET Liver X Receptor Coactivator Assay, LXR beta-LBD; type: biochemical; conditions: for Emax: efficacy in relation to reference dual agonist T1317, read-out: LXR beta activity at max dose (%) (Emax); for EC50: potency (Inflection Point) of co-activator recruitment, TR-FRET, read-out: LXR beta IP
T2 construct: purchased Invitrogen pv4658.pps
T2 sequence (P55055 222-460 limits assumed): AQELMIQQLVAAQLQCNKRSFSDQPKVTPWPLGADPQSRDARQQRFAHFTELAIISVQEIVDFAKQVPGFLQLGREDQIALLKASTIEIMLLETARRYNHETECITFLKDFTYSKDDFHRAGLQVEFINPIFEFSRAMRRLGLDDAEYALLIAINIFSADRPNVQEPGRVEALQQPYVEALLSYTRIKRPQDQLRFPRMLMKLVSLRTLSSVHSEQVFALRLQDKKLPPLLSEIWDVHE
Method: as §1

Row | Compound | Emax [1] [%] | EC50 [1] [nM] | Emax [2] [%] | EC50 [2] [nM] | LXR alpha IP (nM) [1]
1 | CN(C)C(=O)c1ccc(-c2cnc(N3CCN(C(=O)[C@](O)(c4ccccc4)C(F)(F)F)CC3)c(C#N)c2)cc1Cl [Example 2-2, 2-chloro-4-(5-cyano-6-{4-[(2R)-3,3,3-trifluoro-2-hydroxy-2-phenylpropanoyl]piperazin-1-yl}pyridin-3-yl)-N,N-dimethylbenzamide] | 61 | 617 | 102 | 1 | 
2 | CN(C)C(=O)c1ccc(-c2cnc(N3CCN(C(=O)C(C)(C)C)CC3)c(C#N)c2)cc1Cl [Example 2-3, 2-chloro-4-{5-cyano-6-[4-(2,2-dimethylpropanoyl)piperazin-1-yl]pyridin-3-yl}-N,N-dimethylbenzamide] | 67 | 4810 | 105 | 56 | 
3 | CN(C)C(=O)c1ccc(-c2cnc(N3CCN(C(=O)C45CC(C4)C5)CC3)c(C#N)c2)cc1Cl [Example 2-4, 4-{6-[4-(bicyclo[1.1.1]pent-1-ylcarbonyl)piperazin-1-yl]-5-cyanopyridin-3-yl}-2-chloro-N,N-dimethylbenzamide] | 44 | 12800 | 79 | 95 | 
4 | CCC(C)(C)C(=O)N1CCN(c2ncc(-c3ccc(C(=O)N(C)C)c(Cl)c3)cc2C#N)CC1 [Example 2-5, 2-chloro-4-{5-cyano-6-[4-(2,2-dimethylbutanoyl)piperazin-1-yl]pyridin-3-yl}-N,N-dimethylbenzamide] | 62 | 11100 | 97 | 109 | 
5 | CN(C)C(=O)c1ccc(-c2cnc(N3CCN(C(=O)C4CCCCO4)CC3)c(C#N)c2)cc1Cl (stereo not shown) [Example 2-6, 2-chloro-4-{5-cyano-6-[4-(tetrahydro-2H-pyran-2-ylcarbonyl)piperazin-1-yl]pyridin-3-yl}-N,N-dimethylbenzamide] | 16 |  | 49 | 1560 | No IP
6 | CN(C)C(=O)c1ccc(-c2cnc(N3CCN(C(=O)Cc4ccccc4)CC3)c(C#N)c2)cc1Cl [Example 2-7] | 54 | 6790 | 102 | 50 | 
7 | Cc1cc(CC(=O)N2CCN(c3ncc(-c4ccc(C(=O)N(C)C)c(Cl)c4)cc3C#N)CC2)on1 [Example 2-8, 2-chloro-4-(5-cyano-6-{4-[(3-methylisoxazol-5-yl)acetyl]piperazin-1-yl}pyridin-3-yl)-N,N-dimethylbenzamide] | 5 |  | 46 | 4170 | No IP
8 | CN(C)C(=O)c1ccc(-c2cnc(N3CCN(C(=O)C(=O)C(F)(F)F)CC3)c(C#N)c2)cc1Cl [Example 2-9, 2-chloro-4-{5-cyano-6-[4-(3,3,3-trifluoro-2-oxopropanoyl)piperazin-1-yl]pyridin-3-yl}-N,N-dimethylbenzamide] | 42 | 16600 | 99 | 245 | 
9 | Cc1nonc1CC(=O)N1CCN(c2ncc(-c3ccc(C(=O)N(C)C)c(Cl)c3)cc2C#N)CC1 [Example 2-10, 2-chloro-4-(5-cyano-6-{4-[(4-methyl-1,2,5-oxadiazol-3-yl)acetyl]piperazin-1-yl}pyridin-3-yl)-N,N-dimethylbenzamide] | 10 |  | 63 | 2330 | No IP
10 | CN(C)C(=O)c1ccc(-c2cnc(N3CCN(C(=O)[C@H](O)C(F)(F)F)CC3)c(C#N)c2)cc1Cl [Example 2-11, 2-chloro-4-(5-cyano-6-{4-[(2S)-3,3,3-trifluoro-2-hydroxypropanoyl]piperazin-1-yl}pyridin-3-yl)-N,N-dimethylbenzamide] | 30 | 27900 | 77 | 1060 | 
11 | CCCCC(C)(C)C(=O)N1CCN(c2ncc(-c3ccc(C(=O)N(C)C)c(Cl)c3)cc2C#N)CC1 [Example 2-12, 2-chloro-4-{5-cyano-6-[4-(2,2-dimethylhexanoyl)piperazin-1-yl]pyridin-3-yl}-N,N-dimethylbenzamide] | 43 | 1750 | 79 | 27 | 
12 | CN(C)C(=O)c1ccc(-c2cnc(N3CCN(C(=O)C4Cc5ccccc54)CC3)c(C#N)c2)cc1Cl (stereo not shown) [Example 2-13, 4-{6-[4-(bicyclo[4.2.0]octa-1,3,5-trien-7-ylcarbonyl)piperazin-1-yl]-5-cyanopyridin-3-yl}-2-chloro-N,N-dimethylbenzamide] | 50 | 8050 | 108 | 57 | 
13 | Cc1noc(C)c1CC(=O)N1CCN(c2ncc(-c3ccc(C(=O)N(C)C)c(Cl)c3)cc2C#N)CC1 [Example 2-14, 2-chloro-4-(5-cyano-6-{4-[(3,5-dimethylisoxazol-4-yl)acetyl]piperazin-1-yl}pyridin-3-yl)-N,N-dimethylbenzamide] | 23 |  | 77 | 1350 | No IP
14 | CN(C)C(=O)c1ccc(-c2cnc(N3CCN(C(=O)[C@@](C)(O)C(F)(F)F)CC3)c(C#N)c2)cc1Cl [Example 2-15, 2-chloro-4-(5-cyano-6-{4-[(2R)-3,3,3-trifluoro-2-hydroxy-2-methylpropanoyl]piperazin-1-yl}pyridin-3-yl)-N,N-dimethylbenzamide] | 58 | 13100 | 101 | 171 | 
15 | CN(C)C(=O)c1ccc(-c2cnc(N3CCN(C(=O)[C@](C)(O)C(F)(F)F)CC3)c(C#N)c2)cc1Cl [Example 2-16, 2-chloro-4-(5-cyano-6-{4-[(2S)-3,3,3-trifluoro-2-hydroxy-2-methylpropanoyl]piperazin-1-yl}pyridin-3-yl)-N,N-dimethylbenzamide] | 58 | 13000 | 94 | 242 | 
16 | CN(C)C(=O)c1ccc(-c2cnc(N3CCN(C(=O)C4(c5ccccc5)CC4)CC3)c(C#N)c2)cc1Cl [Example 2-17, 2-chloro-4-(5-cyano-6-{4-[(1-phenylcyclopropyl)carbonyl]piperazin-1-yl}pyridin-3-yl)-N,N-dimethylbenzamide] | 27 | 4360 | 95 | 27 | 
17 | CN(C)C(=O)c1ccc(-c2cnc(N3CCN(C(=O)C(C)(C)c4ccccc4)CC3)c(C#N)c2)cc1Cl [Example 2-18, 2-chloro-4-{5-cyano-6-[4-(2-methyl-2-phenylpropanoyl)piperazin-1-yl]pyridin-3-yl}-N,N-dimethylbenzamide] | 43 | 16400 | 99 | 15 | 
18 | CN(C)C(=O)c1ccc(-c2cnc(N3CCN(C(=O)[C@](C)(O)c4ccccc4)CC3)c(C#N)c2)cc1Cl [Example 2-19, 2-chloro-4-(5-cyano-6-{4-[(2R)-2-hydroxy-2-phenylpropanoyl]piperazin-1-yl}pyridin-3-yl)-N,N-dimethylbenzamide] | 27 | 60200 | 77 | 27 | 
19 | CCC(O)(C(=O)N1CCN(c2ncc(-c3ccc(C(=O)N(C)C)c(Cl)c3)cc2C#N)CC1)C(F)(F)F (stereo not shown) [Example 2-20, 2-chloro-4-(5-cyano-6-{4-[2-hydroxy-2-(trifluoromethyl)butanoyl]piperazin-1-yl}pyridin-3-yl)-N,N-dimethylbenzamide] | 60 | 6070 | 102 | 138 | 
20 | CN(C)C(=O)c1ccc(-c2cnc(N3CCN(C(=O)c4c(F)cccc4Cl)CC3)c(C#N)c2)cc1Cl [Example 2-21, 2-chloro-4-(6-{4-[(2-chloro-6-fluorophenyl)carbonyl]piperazin-1-yl}-5-cyanopyridin-3-yl)-N,N-dimethylbenzamide] | 41 | 6290 | 59 | 147 | 
21 | CN(C)C(=O)c1ccc(-c2cnc(N3CCN(C(=O)Cc4c[nH]c5ccccc45)CC3)c(C#N)c2)cc1Cl [Example 2-22, 2-chloro-4-{5-cyano-6-[4-(1H-indol-3-ylacetyl)piperazin-1-yl]pyridin-3-yl}-N,N-dimethylbenzamide] | 54 | 30000 | 83 | 186 | 
22 | CN(C)C(=O)c1ccc(-c2cnc(N3CCN(C(=O)C4(c5ccccc5)CCC4)CC3)c(C#N)c2)cc1Cl [Example 2-23, 2-chloro-4-(5-cyano-6-{4-[(1-phenylcyclobutyl)carbonyl]piperazin-1-yl}pyridin-3-yl)-N,N-dimethylbenzamide] | 47 | 1140 | 97 | 43 | 
